Assay results as given in article PMC2994747, “Molecular Characterization of c-Abl/c-Src Kinase Inhibitors Targeted against Murine Tumour Progenitor Cells that Express Stem Cell Markers” (PLoS ONE, 2010).
Like-named read-outs stand apart in the source and are kept apart here.

What was measured:
GammaD12 [1] = experiment: MTS cell viability assay; format: cell-based, mouse
Procedure: (§1) Three human and eleven murine cancer cell lines were used. The human NSCLC cell line A549 (ACC 107) and the human colorectal carcinoma cell line CaCo2 (ACC 169) were obtained from Deutsche Sammlung von Mikroorganismen und Zellkulturen (DSMZ, Braunschweig, Germany). The human hepatocellular carcinoma cell line HepG2 (HB-8065) was obtained from American Type Culture Collection (Manassas, VA, USA). The 11 murine NSCLC cell lines were established as described recently. Cells were grown in monolayer cultures in DMEM containing 10% foetal calf serum, 4 mmol/l L-glutamine and 2% Penicillin/Streptomycin at 37°C in a humidified atmosphere of 95% air and 5% CO2.
(§2) Cell culture viability was monitored by CellTiter96® AQueous One Solution Cell Proliferation Assay (Promega GmbH, Mannheim, Germany). The cells were seeded in triplicates in 96-well microtitre plates and treated with the dual kinase inhibitors or vehicle (0.2% DMSO). After 24 h or 96 h of treatment the MTS tetrazolium reagent was added to the cells and incubated for 1 h. Absorbance at 490 nm was assayed with a Victor3 Wallac 1420 Multilabel counter (PerkinElmer, Waltham, MA, USA).

A2C12 [2] = experiment: MTS cell viability assay; format: cell-based, mouse
Procedure: as §1, §2

GammaA3 [3] = experiment: MTS cell viability assay; format: cell-based, mouse
Procedure: as §1, §2

BetaD5 [4] = experiment: MTS cell viability assay; format: cell-based, mouse
Procedure: as §1, §2

A549 [5] = experiment: MTS cell viability assay; format: cell-based, human
Procedure: as §1, §2

CaCo2 [6] = experiment: MTS cell viability assay; format: cell-based, human
Procedure: as §1, §2

HepG2 [7] = experiment: MTS cell viability assay; format: cell-based, human
Procedure: as §1, §2

A549 [8] = experiment: Cell cycle analysis by flow cytometry; format: cell-based, human; details: IC50 concentration, 96 h
Procedure: (§3) CycleTEST™ PLUS DNA Reagent Kit (Becton Dickinson GmbH, Heidelberg, Germany) for cell cycle analysis was used, according to the instructions of the manufacturer. Briefly, the cells were harvested with trypsin, washed with PBS, and resuspended in CycleTEST Buffer. The cells were centrifuged and resuspended in solution A. After incubation for 10 min at room temperature, solution B was added and incubated. After adding solution C, the samples were incubated at 4°C protected from light. The samples were stored on ice and protected from light until analysis by FACScan flow cytometer (Becton Dickinson GmbH, Heidelberg, Germany).

CaCo2 [9] = experiment: Cell cycle analysis by flow cytometry; format: cell-based, human; details: IC50 concentration, 96 h
Procedure: as §3

HepG2 [10] = experiment: Cell cycle analysis by flow cytometry; format: cell-based, human; details: IC50 concentration, 96 h
Procedure: as §3

GammaD12 [11] = experiment: Cell cycle analysis by flow cytometry; format: cell-based, mouse; details: IC50 concentration, 96 h
Procedure: as §3

A2C12 [12] = experiment: Cell cycle analysis by flow cytometry; format: cell-based, mouse; details: IC50 concentration, 96 h
Procedure: as §3

GammaA3 [13] = experiment: Cell cycle analysis by flow cytometry; format: cell-based, mouse; details: IC50 concentration; for Cells in G1 phase / Cells in G2 phase / Cells in S phase: 96 h
Procedure: as §3

BetaD5 [14] = experiment: Cell cycle analysis by flow cytometry; format: cell-based, mouse; details: IC50 concentration, 96 h
Procedure: as §3

[15] = Mus musculus, 24 h, read-out: Calculated IC50 after single treatment for 24 h
[16] = Mus musculus, 96 h, read-out: Calculated IC50 after daily treatment for 96 h
[17] = 96 h, read-out: Calculated IC50 after daily treatment for 96 h
[18] = MTS, 24 h, read-out: Calculated IC50 after single treatment for 24 h
[19] = MTS, 96 h, read-out: Calculated IC50 after daily treatment for 96 h
[20] = 24 h, read-out: Calculated IC50 after single treatment for 24 h
[21] = daily treatment 96 h, vs DMSO 0.2%

SMILES	IC50 (A549 [5]; [17]) [µM]	IC50 (GammaD12 [1]; [18]) [µM]	IC50 (GammaD12 [1]; [19]) [µM]	IC50 (A2C12 [2]; [20]) [µM]	IC50 (A2C12 [2]; [17]) [µM]	IC50 (GammaA3 [3]; [20]) [µM]	IC50 (GammaA3 [3]; [17]) [µM]	IC50 (BetaD5 [4]; [20]) [µM]	IC50 (BetaD5 [4]; [17]) [µM]	Cells in G1 phase (A549 [8]) [%]	Cells in G2 phase (A549 [8]) [%]	Cells in S phase (A549 [8]) [%]	Cells in G1 phase (GammaD12 [11]) [%]	Cells in G2 phase (GammaD12 [11]) [%]	Cells in S phase (GammaD12 [11]) [%]	IC50 (A549 [5]; [20]) [µM]	IC50 (CaCo2 [6]; [20]) [µM]	IC50 (CaCo2 [6]; [17]) [µM]	IC50 (HepG2 [7]; [20]) [µM]	IC50 (HepG2 [7]; [17]) [µM]	also measured
Cc1nc(Nc2ncc(C(=O)Nc3c(C)cccc3Cl)s2)cc(N2CCN(CCO)CC2)n1 [Dasatinib, reference compound]	5.2 ± 2.2	–	–	–	–	–	–	–	–	–	–	–	–	–	–	–	–	–	–	–	IC50 (GammaD12 [1]; Mus musculus, 96 h, read-out: IC50 (MTS) after treatment for 96 h): 0.8 µM; IC50 (GammaD12 [1]; Mus musculus, MTS, 24 h, read-out: Calculated IC50 after single treatment for 24 h): 2.6 ± 1 µM; IC50 (A2C12 [2]; [15]): 9.8 ± 1.5 µM; IC50 (A2C12 [2]; [16]): 10.3 ± 1.6 µM; IC50 (GammaA3 [3]; [15]): 1.18 ± 0.1 µM; IC50 (GammaA3 [3]; [16]): 0.32 ± 0.07 µM; IC50 (BetaD5 [4]; [15]): 5.2 ± 0.6 µM; IC50 (BetaD5 [4]; [16]): 0.84 ± 0.05 µM; IC50 (A549 [5]; Homo sapiens, A549, 24 h, 24 h, read-out: Calculated IC50 after single treatment for 24 h): 39.8 ± 5.8 µM; IC50 (A549 [5]; Homo sapiens, A549, 96 h, 96 h, read-out: Calculated IC50 after daily treatment for 96 h): 5 µM; IC50 (CaCo2 [6]; Homo sapiens, Caco-2, 24 h, read-out: Calculated IC50 after single treatment for 24 h): > 100 µM; IC50 (CaCo2 [6]; Homo sapiens, Caco-2, 96 h, read-out: Calculated IC50 after daily treatment for 96 h): 0.44 ± 0.25 µM; IC50 (HepG2 [7]; Homo sapiens, 24 h, read-out: Calculated IC50 after single treatment for 24 h): 26.2 ± 2.8 µM; IC50 (HepG2 [7]; Homo sapiens, 96 h, read-out: Calculated IC50 after daily treatment for 96 h): 5 ± 0.82 µM
CCCCNc1nc(SCC)nc2c1cnn2CC(Cl)c1ccccc1 (stereo not drawn) [Si20]	13.6 ± 1.5	17.1 ± 1.5	11.3 ± 1.2	28.1 ± 4.6	11.3 ± 0.9	21.5 ± 2.3	15.5 ± 2.3	27 ± 7.9	10.4	78.9	4.3	16.7	31.4	9.7	58.9	25.1 ± 2.6	56.2 ± 2	6.5 ± 0.1	56.2 ± 2.1	8.1 ± 2.8	Cells in G1 phase (CaCo2 [9]): 61.9%; Cells in G2 phase (CaCo2 [9]): 5.2%; Cells in S phase (CaCo2 [9]): 32.9%; Cells in G1 phase (HepG2 [10]): 61.5%; Cells in G2 phase (HepG2 [10]): 7.3%; Cells in S phase (HepG2 [10]): 31.2%; Cells in G1 phase (A2C12 [12]): 55.6%; Cells in G2 phase (A2C12 [12]): 11.3%; Cells in S phase (A2C12 [12]): 33.1%; Cells in G1 phase (GammaA3 [13]): 51.9%; Cells in G2 phase (GammaA3 [13]): 17.5%; Cells in S phase (GammaA3 [13]): 30.8%; Cells in G1 phase (BetaD5 [14]): 63.2%; Cells in G2 phase (BetaD5 [14]): 24.2%; Cells in S phase (BetaD5 [14]): 12.6%
CCN(CC)c1nc(SC)nc2c1cnn2CC(Cl)c1ccccc1 (stereo not drawn) [Si27]	> 20	> 100	> 20	> 100	> 20	> 100	> 20	> 100	> 20	–	–	–	–	–	–	> 100	> 100	> 20	> 100	16.2 ± 6.3	–
CSc1nc(NCc2ccccc2)c2cnn(CC(Cl)c3ccc(F)cc3)c2n1 (stereo not drawn) [Si65]	8.2 ± 0.5	21 ± 1	7.1 ± 0.6	25.9 ± 4.3	8.6 ± 1.3	31.9 ± 1.6	9.9 ± 1.4	22.6 ± 1.9	10.6 ± 0.1	67.2	6.3	26.6	33	8.7	58.4	22.7 ± 0.6	40.3 ± 0.9	5.7 ± 0.4	40.3 ± 0.9	9.1 ± 1.7	Cells in G1 phase (HepG2 [10]): 62.7%; Cells in G2 phase (HepG2 [10]): 8.5%; Cells in S phase (HepG2 [10]): 28.1%; Cells in G1 phase (A2C12 [12]): 73.4%; Cells in G2 phase (A2C12 [12]): 10.4%; Cells in S phase (A2C12 [12]): 16.2%; Cells in G1 phase (GammaA3 [13]): 68%; Cells in G2 phase (GammaA3 [13]): 17.3%; Cells in S phase (GammaA3 [13]): 14.6%; Cells in G1 phase (BetaD5 [14]): 58.4%; Cells in G2 phase (BetaD5 [14]): 24.7%; Cells in S phase (BetaD5 [14]): 16.9%
CSc1nc(NCc2ccccc2)c2cnn(CC(Cl)c3ccc(Cl)cc3)c2n1 (stereo not drawn) [Si70]	10.2 ± 0.5	21.6 ± 1.6	7.9 ± 3.4	68.5 ± 16.8	9.2 ± 0.3	40.7 ± 6.2	13.5 ± 1.1	31 ± 5.1	11 ± 0.3	77.3	4.1	18.6	43.7	7.7	48.7	96 ± 35.1	82.1 ± 5.3	7.6 ± 0.3	82.1 ± 5.3	> 100	Cells in G1 phase (CaCo2 [9]): 65.9%; Cells in G2 phase (CaCo2 [9]): 6.8%; Cells in S phase (CaCo2 [9]): 27.3%; Cells in G1 phase (A2C12 [12]): 63.3%; Cells in G2 phase (A2C12 [12]): 10.1%; Cells in S phase (A2C12 [12]): 26.6%; Cells in G1 phase (GammaA3 [13]): 89%; Cells in G2 phase (GammaA3 [13]): 8.2%; Cells in S phase (GammaA3 [13]): 2.8%; Decrease in the S-phase compared to the vehicle treatment (GammaA3 [13]; [21]): up to 91%; Increase in G0/G1 compared to the vehicle treatment (GammaA3 [13]; [21]): up to 92%; Cells in G1 phase (BetaD5 [14]): 56.6%; Cells in G2 phase (BetaD5 [14]): 25.7%; Cells in S phase (BetaD5 [14]): 17.7%
CSc1nc(NCc2ccccc2)c2cnn(CC(Br)c3ccccc3)c2n1 (stereo not drawn) [Si81]	11.2 ± 1	17.4 ± 2.6	14.1 ± 0.2	30.8 ± 2.5	12.1 ± 2.1	26.8 ± 1.5	> 20	20.6 ± 4	19.5 ± 3.1	62.8	6.3	30.9	33.3	8.8	57.9	> 100	72.9 ± 6.4	7.5 ± 0.2	72.9 ± 6.4	22.6 ± 4.3	Cells in G1 phase (CaCo2 [9]): 58.7%; Cells in G2 phase (CaCo2 [9]): 6.9%; Cells in S phase (CaCo2 [9]): 34.3%; Cells in G1 phase (HepG2 [10]): 58.8%; Cells in G2 phase (HepG2 [10]): 9.5%; Cells in S phase (HepG2 [10]): 31.7%; Cells in G1 phase (A2C12 [12]): 66.7%; Cells in G2 phase (A2C12 [12]): 10.7%; Cells in S phase (A2C12 [12]): 22.6%; Cells in G1 phase (BetaD5 [14]): 61.9%; Cells in G2 phase (BetaD5 [14]): 22%; Cells in S phase (BetaD5 [14]): 16.1%
